Assay results as given in article PMC6694155, “PTPσ inhibitors promote hematopoietic stem cell regeneration” (Nature Communications, 2019).
Several values for one entry are separate records, joined by “and”; a condition that tells them apart may be missing. Identical values can stand only once.

Experiments:
PTPσ = biological target: T1, PTPσ (Mus musculus, UniProt B0V2N1); assay: Substrate titration of PTPσ (Km, Vmax, mechanism of inhibition); type: biochemical
T1 sequence (B0V2N1 1326-1907): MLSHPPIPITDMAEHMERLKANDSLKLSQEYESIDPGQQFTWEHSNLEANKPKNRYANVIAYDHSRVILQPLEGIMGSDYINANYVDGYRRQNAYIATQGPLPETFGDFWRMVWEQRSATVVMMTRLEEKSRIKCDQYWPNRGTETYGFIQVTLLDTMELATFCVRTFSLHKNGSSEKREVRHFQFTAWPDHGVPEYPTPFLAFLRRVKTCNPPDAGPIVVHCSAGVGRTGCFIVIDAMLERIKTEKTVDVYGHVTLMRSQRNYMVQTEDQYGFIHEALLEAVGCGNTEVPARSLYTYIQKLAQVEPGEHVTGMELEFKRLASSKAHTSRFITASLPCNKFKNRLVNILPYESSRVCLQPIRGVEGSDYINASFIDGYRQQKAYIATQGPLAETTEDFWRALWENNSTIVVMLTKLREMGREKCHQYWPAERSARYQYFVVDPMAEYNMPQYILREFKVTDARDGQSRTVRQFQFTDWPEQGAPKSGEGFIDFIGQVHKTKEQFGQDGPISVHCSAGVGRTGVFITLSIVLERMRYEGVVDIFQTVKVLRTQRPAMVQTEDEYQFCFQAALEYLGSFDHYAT
Experimental: The two intracellular catalytic domains (D1 and D2) of Ptprs were cloned into a pET28a vector, overexpressed in Escherichia coli BL21 and purified. Enzymatic activity of PTPσ was assayed using a modified version of the Malachite Green Assay[66] and the Tyrosine Phosphatase Assay Kit (Promega Corporation). Unless stated otherwise, standard assays were carried out using 50 nM PTPσ protein in 1× Buffer (10 mM Tris, 5 mM MgCl2, 10 mM NaCl, 0.02% Tween) and Tyr Phosphopeptide as substrate (200 μM for Fig. 1b, c, 50–1200 μM in Fig. 1c). Purified catalytic domain 1 and domain 2 of PTPσ were pre-incubated with test compounds 3071, 5205, 5075, or control for 15 min in a 96-well plate before the addition of Tyr Phosphopeptide (DADE(pY)LIPQQG). For IC50 determination, rates normalized relative to uninhibited controls (dimethyl sulfoxide (DMSO)) were plotted against compound concentration and fitted using a four-parameter nonlinear regression curve fit ((y = [(A − D) (1 + {xC − 1}B) − 1] + D) (Prism 6.0, Graphpad Software). For mechanism studies and determination of the enyzme’s Km and Vmax, data were analyzed using a nonlinear regression fit according to the classical Michaelis–Menten kinetics model, Y = Vmax*X/(Km + X) (Prism 6.0, Graphpad Software).

human CD34+CD38− cells = assay: BCL2L1 and MCL-1 gene expression in irradiated human CD34+CD38− cells (qPCR); type: cell-based
Description: (§1) For all studies, RNA was isolated using the Qiagen RNeasy micro kit (Qiagen). RNA was reverse transcribed using the High-Capacity cDNA Reverse Transcription Kit (ThermoFisher Scientific) and was then used for quantitative PCR with SYBR Select Master Mix (Life Technologies). Values were normalized to housekeeping gene Gapdh/GAPDH and given as ΔΔCt values normalized to media-treated, non-irradiated BM KSL cells (2(−ΔΔC(T)) method)[67].

[1] = tested on: BM KSL cells / BM lin− cells; assay: Gene expression of cell cycle regulatory genes (qPCR); type: cell-based, mouse
Experimental: Rac1 CDS-targeting- and Bcl2l1 CDS-targeting shRNA in lentiviral plasmid (TRCN0000310888 and TRCN0000004685) and control shRNA (SHC216V) were purchased from Sigma Aldrich. For viral production, 293T cells were transfected with lentiviral gag/pol and VSV-G (courtesy of Donald Kohn, UCLA) and the lentiviral plasmids, at a ratio of 2.2: 1.2: 3.3 (in [μg], gag/pol:VSVG:Plasmid) using Lipofectamine 3000 and P300 Enhancer. Viral particles were collected after 24 h and 48 h. One milliliter of viral supernatant was used to infect 0.75 × 10^6 BM lin^− cells. Infected cells were collected the next day and irradiated with 300 cGy followed by treatment with or without 1 μg/mL DJ001, prior to CFC assay.
as §1

[2] = irradiated human CD34+CD38− cells, qPCR, replicates
[3] = KSL cells, 36 h following 300 cGy, normalized to Gapdh and media

O=C(/C=C\Nc1cccc([N+](=O)[O-])c1)c1ccccc1 [DJ001, (Z)-3-((3-nitrophenyl)amino)-1-phenylprop-2-en-1-one]
substrate titration source data, rate per replicate (PTPσ; 25M DJ001, Substrate 50 uM): 9 | substrate titration source data, rate per replicate (PTPσ; 25M DJ001, Substrate 50 uM, 25 µM DJ001): 12.3 | substrate titration source data, rate per replicate (PTPσ; 25M DJ001, Substrate 100 uM): 13.4 | substrate titration source data, rate per replicate (PTPσ; 25M DJ001, Substrate 100 uM, 25 µM DJ001): 16.2 | substrate titration source data, rate per replicate (PTPσ; 25M DJ001, Substrate 200 uM): 26.7 | substrate titration source data, rate per replicate (PTPσ; 25M DJ001, Substrate 200 uM, 25 µM DJ001): 26 | substrate titration source data, rate per replicate (PTPσ; 25M DJ001, Substrate 400 uM): 42.9 | substrate titration source data, rate per replicate (PTPσ; 25M DJ001, Substrate 400 uM, 25 µM DJ001): 40.9 | substrate titration source data, rate per replicate (PTPσ; 25M DJ001, Substrate 800 uM): 54.8 | substrate titration source data, rate per replicate (PTPσ; 25M DJ001, Substrate 800 uM, 25 µM DJ001): 50.4 | substrate titration source data, rate per replicate (PTPσ; 25M DJ001, Substrate 1200 uM): 57.8 | substrate titration source data, rate per replicate (PTPσ; 25M DJ001, Substrate 1200 uM, 25 µM DJ001): 55.4 | substrate titration source data, rate per replicate (PTPσ; 50M DJ001, Substrate 50 uM, 50 µM DJ001): 7.7 and 8 | substrate titration source data, rate per replicate (PTPσ; 50M DJ001, Substrate 100 uM, 50 µM DJ001): 9.1 and 9.9 | substrate titration source data, rate per replicate (PTPσ; 50M DJ001, Substrate 200 uM, 50 µM DJ001): 14.1 and 15.3 | substrate titration source data, rate per replicate (PTPσ; 50M DJ001, Substrate 400 uM, 50 µM DJ001): 23.2 and 23.4 | substrate titration source data, rate per replicate (PTPσ; 50M DJ001, Substrate 800 uM, 50 µM DJ001): 28.7 and 27 | substrate titration source data, rate per replicate (PTPσ; 50M DJ001, Substrate 1200 uM, 50 µM DJ001): 34.7 and 35 | substrate titration source data, rate per replicate (PTPσ; 100M DJ001, Substrate 50 uM): 7.7 and 7.4 | substrate titration source data, rate per replicate (PTPσ; 100M DJ001, Substrate 100 uM): 7.7 | substrate titration source data, rate per replicate (PTPσ; 100M DJ001, Substrate 200 uM): 8.9 | substrate titration source data, rate per replicate (PTPσ; 100M DJ001, Substrate 400 uM): 13.4 and 13.9 | substrate titration source data, rate per replicate (PTPσ; 100M DJ001, Substrate 800 uM): 17.3 and 16.7 | substrate titration source data, rate per replicate (PTPσ; 100M DJ001, Substrate 1200 uM): 25.5 and 23.8 | mechanism of PTPσ inhibition (PTPσ; substrate titration, inhibits Vmax, constant Km): non-competitive inhibitor | expression of BCL2L1 and MCL-1 (human CD34+CD38− cells; irradiated human CD34+ cells, 12 h after 300 cGy): increased the expression | Figure 5d: gene expression, BCL-XL (human CD34+CD38− cells; [2]): 7.91 and 7.15 and 7.38 | Figure 5d: gene expression, MCL1 (human CD34+CD38− cells; [2]): 3.75 and 3.41 and 4.98 | DJ001-mediated transcription of Cdk2 and Cyclin E with Rac1-shRNA ([1]; BM KSL cells transduced with Rac1-shRNA): blocked DJ001-mediated transcription of Cdk2 and Cyclin E | Fold changes (2^−ΔΔCt) of Cyclin E expression (Figure 4c right panel) ([1]; BM lin− cells, 48 h after 300 cGy, shCtrl): 1.96 and 1.7 and 1.9 | Fold changes (2^−ΔΔCt) of Cdk2 expression (Figure 4c left panel) ([1]; BM lin− cells, 48 h after 300 cGy, shRac1): 0.56 and 0.39 and 0.71 and 0.44 | Fold changes (2^−ΔΔCt) of Cdk2 expression [1, 3]: 1.9 and 2.08 and 1.8 | Fold changes (2^−ΔΔCt) of Cdk4 expression [1, 3]: 1.32 and 1.05 and 1 | Fold changes (2^−ΔΔCt) of Cdk6 expression [1, 3]: 1.09 and 0.91 and 0.98 | Fold changes (2^−ΔΔCt) of Cdkn1A expression [1, 3]: 1.43 and 1.41 and 1.14 | Fold changes (2^−ΔΔCt) of Cdkn1B expression [1, 3]: 1.11 and 1.07 and 0.74 | Fold changes (2^−ΔΔCt) of Cyclin D1 expression [1, 3]: 1.54 and 1.21 and 0.97 | Fold changes (2^−ΔΔCt) of Cyclin D2 expression [1, 3]: 1.04 and 1.14 and 0.74 | Fold changes (2^−ΔΔCt) of Cyclin E expression [1, 3]: 2.54 and 2.89 and 2.07 | expression of Cdk4, Cdk6, Cdkn1a, Cdkn1b, Cyclin D1, Cyclin D2 ([1]; irradiated BM KSL cells): did not alter the expression | expression of Cdk2 and Cyclin E ([1]; irradiated KSL cells): significantly increased the expression
